The term IC50 denotes the point on the concentration scale where inhibition reaches its midpoint. A higher IC50 goes with weaker potency.

Holding throughout (assay): growth inhibition of human tumour cells, 72 h incubation
What all share (format): cell-based
Conditions in all cases: 72 hours of incubation

In one experiment the test system is NCI1975D (lung). Here is the method:
(§1) On the one hand, human cells of different types of cancer were used. The cells were incubated at 37° C. and 5% of CO2 in air, in culture medium RPMI1640 or DMEM with bovine foetal serum (10%) and other supplements and in the presence or absence of the triglycerides of the present invention at different concentrations during 72 hours. It was possible to observe that the hydroxy-triglycerides of the invention have a high efficacy against the growth of human tumour cells, but not against the growth of normal non-tumour cells (human fibroblasts, MRC5).

Another experiment relates to A549 (lung). As to the method:
as §1

The test system of the next experiment is U87M (glioma). Here is the method:
as §1

For a further experiment, the system named is PC3 (prostate). Here is the method: as §1
The next experiment has as its system MDA-MB231 (breast). Here is the method: as §1
In experiment [1] the test system is Jurkat (lymphoblastic leukaemia). As to the method: as §1
Another experiment deals with HT-29 (colon). Here is the method:
as §1

A further experiment has as its system HeLa (cervix). Here is the method: as §1
In another experiment the test system is MIA-PaCa-2 (pancreas). Here is the method:
as §1

In a further experiment the test system is BXPC3 (pancreas). Here is the method:
as §1

The next experiment deals with SH-SY5Y (neuroblastoma). As to the method:
as §1

A further experiment has as its system SF767 (glioma). As to the method:
as §1

The next experiment has as its system HepG2 (liver carcinoma). As to the method: as §1
Experiment [2] has as its system HL-60 (myeloblastic leukaemia). Here is the method: as §1

Take `CCCCCC(O)C(=O)OCC(COC(=O)C(O)CCCCC)OC(=O)C(O)CCCCC` (centres unmarked) [TGM0, 1,2,3-tri(2′-hydroxyheptanoyl)glycerol]: the IC50 in the experiment on NCI1975D (lung) (Homo sapiens) was 327 µM; in the experiment on A549 (lung) (Homo sapiens, A549), 121 µM; with U87M (glioma) (Homo sapiens), 342 µM; in the experiment with PC3 (prostate) (Homo sapiens) it was 231 µM; in the experiment with MDA-MB231 (breast) (Homo sapiens, MDA-MB-231), 254 µM; in [1] (Homo sapiens, Jurkat), 176 µM. Moreover, the IC50 in the experiment with HT-29 (colon) (Homo sapiens, HT-29) came to 265 µM; with HeLa (cervix) (Homo sapiens, HeLa), 199 µM; in the experiment on MIA-PaCa-2 (pancreas) (Homo sapiens, MIA PaCa-2), 283 µM; with BXPC3 (pancreas) (Homo sapiens, BXPC-3) it was 297 µM; in the experiment with SH-SY5Y (neuroblastoma) (Homo sapiens, SH-SY5Y) it was 253 µM; with SF767 (glioma) (Homo sapiens, SF767) it was 278 µM. Also, in the experiment with HepG2 (liver carcinoma) (Homo sapiens, HepG2), the IC50 is 326 µM.

On to `CCCCCCCCC=CCCCCCCC(O)C(=O)OCC(COC(=O)C(O)CCCCCCC=CCCCCCCCC)OC(=O)C(O)CCCCCCC=CCCCCCCCC` (centres unmarked) [TGM1, 1,2,3-tri(2′-hydroxy-octadec-9′-enoyl)glycerol], for which the IC50 in the experiment with NCI1975D (lung) was found to be 292 µM; in the experiment with A549 (lung) it was 29 µM; in the experiment on U87M (glioma), 257 µM; with PC3 (prostate) it was 240 µM; with MDA-MB231 (breast), 128 µM; in experiment [1], 32 µM. The IC50 came to 93 µM in the experiment on HT-29 (colon); 184 µM in the experiment on HeLa (cervix); 144 µM with MIA-PaCa-2 (pancreas); 211 µM in the experiment on BXPC3 (pancreas); 129 µM with SH-SY5Y (neuroblastoma); 243 µM in experiment [2]. In addition, the IC50 was 282 µM in the experiment on SF767 (glioma) and 87 µM in the experiment with HepG2 (liver carcinoma).

On to `CCCCCC=CCC=CCCCCCCC(O)C(=O)OCC(COC(=O)C(O)CCCCCCC=CCC=CCCCCC)OC(=O)C(O)CCCCCCC=CCC=CCCCCC` (centres unmarked) [TGM2, 1,2,3-tri(2′-hydroxy-octadec-9′,12′-dienoyl)glycerol], for which the IC50 is 54 µM in the experiment with NCI1975D (lung); 2 µM in the experiment with A549 (lung); 56 µM in the experiment on U87M (glioma); 42 µM with PC3 (prostate); 57 µM with MDA-MB231 (breast); 67 µM in experiment [1]. Also, the IC50 is 132 µM in the experiment on HT-29 (colon); 147 µM with HeLa (cervix); 77 µM in the experiment on MIA-PaCa-2 (pancreas); 31 µM with BXPC3 (pancreas); 74 µM in the experiment on SH-SY5Y (neuroblastoma); 114 µM in experiment [2]. For the same compound, the figures for the IC50 with SF767 (glioma) and in the experiment with HepG2 (liver carcinoma) were 31 µM and 25 µM, respectively.

As for `CCC=CCC=CCC=CCCCCCCC(O)C(=O)OCC(COC(=O)C(O)CCCCCCC=CCC=CCC=CCC)OC(=O)C(O)CCCCCCC=CCC=CCC=CCC` (centres unmarked) [TGM3A, 1,2,3-tri(2′-hydroxy-octadec-9′,12′,15′-trienoyl)glycerol], the IC50 in the experiment on NCI1975D (lung) came to 64 µM; in the experiment with A549 (lung), 43 µM; in the experiment on U87M (glioma), 31 µM; in the experiment with PC3 (prostate), 119 µM; in the experiment with MDA-MB231 (breast), 116 µM; in [1] it was 95 µM. The IC50 in the experiment on HT-29 (colon) stood at 187 µM; with HeLa (cervix), 164 µM; in the experiment with MIA-PaCa-2 (pancreas) it was 142 µM; in the experiment with BXPC3 (pancreas), 80 µM; in the experiment on SH-SY5Y (neuroblastoma), 39 µM; in [2], 58 µM. The IC50 in the experiment with SF767 (glioma) was 57 µM; in the experiment with HepG2 (liver carcinoma) it was 42 µM.

With `CCCCCC=CCC=CCC=CCCCC(O)C(=O)OCC(COC(=O)C(O)CCCC=CCC=CCC=CCCCCC)OC(=O)C(O)CCCC=CCC=CCC=CCCCCC` (centres unmarked) [TGM3G, 1,2,3-tri(2′-hydroxy-octadec-6′,9′,12′-trienoyl)glycerol], the IC50 is 39 µM in the experiment on A549 (lung); 28 µM in the experiment on U87M (glioma); 94 µM in the experiment with PC3 (prostate); 187 µM in the experiment with MDA-MB231 (breast); 174 µM in experiment [1]; 59 µM in the experiment with HT-29 (colon). For the same compound, the IC50 in the experiment on HeLa (cervix) turned out to be 75 µM; in the experiment on MIA-PaCa-2 (pancreas), 123 µM; with BXPC3 (pancreas) it was 81 µM; in the experiment on SH-SY5Y (neuroblastoma) it was 154 µM; in [2], 42 µM; in the experiment with SF767 (glioma) it was 46 µM. In the experiment on HepG2 (liver carcinoma), inhibition was half-maximal at 187 µM (IC50).

As to `CCCCCC=CCC=CCC=CCC=CCCC(O)C(=O)OCC(COC(=O)C(O)CCC=CCC=CCC=CCC=CCCCCC)OC(=O)C(O)CCC=CCC=CCC=CCC=CCCCCC` (centres unmarked) [TGM4, 1,2,3-tri(2′-hydroxy-eicosa-5′,8′,11′,14′-tetraenoyl)glycerol], the IC50 with NCI1975D (lung) came out at 10 µM; in the experiment with A549 (lung), 0.9 µM; with U87M (glioma), 17 µM; with PC3 (prostate) it was 18 µM; in the experiment on MDA-MB231 (breast) it was 36 µM; in [1], 151 µM. Further, the IC50 with HT-29 (colon) was found to be 11 µM; in the experiment with HeLa (cervix), 6 µM; in the experiment on MIA-PaCa-2 (pancreas), 43 µM; with BXPC3 (pancreas) it was 72 µM; in the experiment with SH-SY5Y (neuroblastoma), 27 µM; in [2] it was 32 µM. Further, the values for the IC50 with SF767 (glioma) and with HepG2 (liver carcinoma) were 21 µM and 22 µM, respectively.

Regarding `CCC=CCC=CCC=CCC=CCC=CCCC(O)C(=O)OCC(COC(=O)C(O)CCC=CCC=CCC=CCC=CCC=CCC)OC(=O)C(O)CCC=CCC=CCC=CCC=CCC=CCC` (centres unmarked) [TGM5, 1,2,3-tri(2′-hydroxy-eicosa-5′,8′,11′,14′,17′-pentaenoyl)glycerol], the IC50 with NCI1975D (lung) was 14 µM; with A549 (lung), 4 µM; in the experiment with U87M (glioma) it was 43 µM; in the experiment with PC3 (prostate), 21 µM; in the experiment with MDA-MB231 (breast), 18 µM; in experiment [1], 9 µM. Further, the IC50 came to 8 µM in the experiment on HT-29 (colon); 19 µM with HeLa (cervix); 23 µM in the experiment on MIA-PaCa-2 (pancreas); 17 µM in the experiment with BXPC3 (pancreas); 29 µM in the experiment with SH-SY5Y (neuroblastoma); 13 µM in [2]. Further, the values for the IC50 in the experiment on SF767 (glioma) and in the experiment with HepG2 (liver carcinoma) were 26 µM and 52 µM, respectively.

Take `CCC=CCC=CCC=CCC=CCC=CCC=CCC(O)C(=O)OCC(COC(=O)C(O)CC=CCC=CCC=CCC=CCC=CCC=CCC)OC(=O)C(O)CC=CCC=CCC=CCC=CCC=CCC=CCC` (centres unmarked) [TGM6, 1,2,3-tri(2′-hydroxy-docosa-4′,7′,10′,13′,16′,19′-hexanoyl)glycerol]: the IC50 was found to be 21 µM in the experiment on NCI1975D (lung); 1 µM in the experiment on A549 (lung); 36 µM in the experiment with U87M (glioma); 5 µM in the experiment on PC3 (prostate); 9 µM in the experiment with MDA-MB231 (breast); 25 µM in experiment [1]. Moreover, the IC50 is 34 µM in the experiment on HT-29 (colon); 12 µM in the experiment with HeLa (cervix); 29 µM in the experiment on MIA-PaCa-2 (pancreas); 18 µM in the experiment with BXPC3 (pancreas); 7 µM with SH-SY5Y (neuroblastoma); 6 µM in [2]. For the same compound, the half-inhibitory concentration (IC50) is 41 µM in the experiment on SF767 (glioma) and 30 µM in the experiment on HepG2 (liver carcinoma).

These data come from patent US10047036B2, “Method for the synthesis of hydroxy-triglycerides and uses thereof for the prevention and treatment of diseases” (UNIVERSITAT DE LES ILLES BALEARS, priority 2014, dated 2018).
